Values quoted from earlier work in PMC5766731 (Clinical Pharmacokinetics, 2017).

Conditions: cited from earlier work

O=C(O)CNC(=O)c1ncc(-c2cccc(Cl)c2)cc1O [vadadustat]
pharmacokinetics in CKD patients (stages 3 and 4): not found to be significantly altered | renal CL mechanisms, share of the radioactive dose (healthy subjects): approximately 59%
